Results reported in PMC4014121, “Structure of sulfamidase provides insight into the molecular pathology of mucopolysaccharidosis IIIA” (Acta Crystallographica Section D: Biological Crystallography, 2014).

Biological target: T1, SGSH (sulfamidase; N-sulfoglucosamine sulfohydrolase) (Homo sapiens, UniProt P51688)
T1 construct: full-length cDNA with C-terminal RSHHHHHH (residues 503-510), tag kept; secreted from HEK 293 cells, HisTrap purified; signal peptide removed (modelled from residue 21/22); glycosylated; Cys70 converted to formylglycine; homodimer, 55 kDa unglycosylated subunit
T1 sequence (P51688 21-502): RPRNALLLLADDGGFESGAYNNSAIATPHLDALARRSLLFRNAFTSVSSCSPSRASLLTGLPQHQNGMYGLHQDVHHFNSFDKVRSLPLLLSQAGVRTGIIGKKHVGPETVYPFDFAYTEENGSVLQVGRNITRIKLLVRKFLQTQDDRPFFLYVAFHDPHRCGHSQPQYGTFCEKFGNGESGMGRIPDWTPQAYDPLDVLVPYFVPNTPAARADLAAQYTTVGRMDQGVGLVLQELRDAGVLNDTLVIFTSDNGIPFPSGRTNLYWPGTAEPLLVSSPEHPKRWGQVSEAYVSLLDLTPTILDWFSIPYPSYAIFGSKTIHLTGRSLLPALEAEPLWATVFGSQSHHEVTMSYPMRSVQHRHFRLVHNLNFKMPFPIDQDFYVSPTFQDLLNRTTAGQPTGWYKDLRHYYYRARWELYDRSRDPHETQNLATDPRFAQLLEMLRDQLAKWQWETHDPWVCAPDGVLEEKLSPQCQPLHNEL
Experiment: two-step fluorometric assay with MU-alphaGlcNS, alpha-glucosidase coupled
Assay type: biochemical

Compound	IC50
O=P(O)(O)O [phosphate]	1000 µM
O=S(=O)(O)O [sulfate]	5000 µM
